Source: US8563565B2, “Pyrazoloquinoline derivatives” (Eisai R&D Management Co., Ltd., priority 2011, dated 2013)
Read-outs that look alike come from different tables or passages of the source.

Experiments:
[1] = biological target: T1, human recombinant PDE9 protein (Homo sapiens, UniProt O76083); test: PDE9 inhibitory activity test (measurement of PDE9 inhibitory action, [3H]-cGMP); format: biochemical; conditions: PDE9 IC50, human recombinant PDE9, 30° C., 10 min
T1 construct: His-tag (inferred from the Ni column purification; a myc His-tag vector is named only for the HEK293 expression check); made in house; host or cells: silkworm (pYNG vector, Katakura Industries)
Excerpt: 1) Preparation of a Human Recombinant PDE9 Protein
An hsPDE9A 1cDNA fragment was amplified by being based on a base sequence (Accession No.: AF048837) of the hsPDE9A1 registered on GenBank data base, and by using the following sequences (Hokkaido System Science Co., Ltd.) as a primer and Human hippocampus cDNA library (Clontech Laboratories, Inc.) as a template DNA, and using Pfu50 DNA polymerase (Invitrogen Corp.), and by a polymerase chain reaction (PCR) of the following condition.
The condition of PCR: [96° C., 5 min]×1 cycle, [(96° C., 10 sec), (57° C., 5 sec), (72° C., 2 min)]×30 cycles
The obtained hsPDE9A 1 cDNA fragment was incorporated in a TOPO-TA cloning vector (Invitrogen Corp.), and the base sequence was checked; and thereafter, the resultant was transfected in a pcDNA 3.1/myc His-tag vector (Invitrogen Corp.) to thereby make a human PDE9 expression vector for mammal cells. The human PDE9 expression vector for mammal cells was transfected with transient expression to an HEK293 cell by using a LIPOFETAMINE 2000 Reagent (Gibco). It was confirmed by Western blot method that the PDE9A expressed in the HEK293 cell, and then, the human PDE9A 1cDNA fragment was transfected in a pYNG vector (Katakura Industries Co., Ltd.) to thereby make an expression vector for insect cells. A supernatant of homogenized silk worm in which a large amount of PDE9 was expressed was purified by an equilibrated Ni column using a buffer A (20 mmol/L Tris-HCl, pH: 8.0, 1 mmol/L DTT, 10 mmol/L imidazole). After 1 hour of mixing of the supernatant and the Ni column, cleaning was carried out using a buffer B (20 mmol/L Tris-HCl, pH: 8.0, 1 mmol/L […]), and elution was carried out using a buffer C (20 mmol/L Tris-HCl, pH: 8.0, 1 mmol/L DTT, 100 mmol/L imidazole). An elution fraction was preparatively collected to thereby obtain a PDE9 enzyme solution.
2) Measurement of PDE9 Inhibitory Action
To 100 μL of a buffer D (40 mmol/L Tris-HCl, pH: 7.4, 10 mmol/L MgCl2, 1 mM DTT, 2 μM cGMP) solution containing [^3H]-cGMP ([…]/mL), 10 μL of a compound solution for evaluation (a solution in which a compound was dissolved in DMSO and diluted so that the DMSO concentration became 5%) and 90 μL of a solution prepared by diluting the PDE9 enzyme solution prepared in the above with a buffer E (40 mmol/L Tris-HCl, pH: 7.4, 10 mmol/L MgCl2, 1 mM DTT, 1 mmol/L EGTA) were added under ice cooling. The resultant mixed solution was incubated at 30° C. for 10 min, and thereafter heated for 2 min in boiled water to stop the enzyme reaction of the PDE9. Then, the resultant was returned to room temperature; 50 μL of 5′-Nucleotidase (Biomol GmbH, 10 units/mL) was added thereto; and the resultant was incubated at 30° C. for 10 min to thereby convert [^3H]-5′-GMP formed in the previous reaction to [^3H]-guanosine. 500 μL of an anion exchange resin (Bio-Rad AG1-X2 resin, mesh size: 200-400, H2O:resin=2:1) was added to the resultant reaction liquid, and allowed to stand for 10 min, and thereafter centrifuged (2,000 rpm, 10 min); and a supernatant in which the [^3H]-guanosine was present was transferred to a LumaPlate (PerkinElmer, Inc.), and the radioactivity was measured by a TopCount NXT microplate scintillation and luminescence counter (PerkinElmer, Inc.).
The inhibition percentage of the evaluation compound was calculated using the following expression, taking the radioactivity of a control containing no evaluation compound to be (A), the radioactivity of a blank containing no enzyme to be (B), and the radioactivity of the evaluation compound to be (C). Inhibition percentage=100−{[(C)−(B)]/[(A)−(B)]}×100(%)
The IC50 value for PDE9 of the evaluation compound was determined from inhibition percentage for various concentrations.

[2] = test system: cGMP in the cerebrospinal fluid; test: Effect on rodent cerebrospinal fluid cGMP (rat); format: in vivo; conditions: po, read-out: % CSF cGMP increase from vehicle control
Experimental: (§1) 3) Effect on Rodent Cerebrospinal Fluid cGMP
(§2) The test compound was administered to ICR male mice (Charles River Laboratories Japan, Inc.), Sprague-Dawley male rats (SD) (Charles River Laboratories Japan, Inc.) or Long-Evans male rats (LE) (Institute for Animal Reproduction), and the cerebrospinal fluid was then collected under pentobarbital anesthesia and stored at −20° C. cGMP in the cerebrospinal fluid was measured in accordance with the acetylation EIA procedure of cGMP EIA kit (GE Healthcare) or the non-acetylation procedure of cGMP EIA kit (Cayman) The result was an increase (C) in the amount of cGMP of the test compound-administered group (B) relative to the amount of cGMP of the vehicle-administered group (A), and was calculated using the following formula cGMP increase(C)=[(B)−(A)]/(A)×100(%)

[3] = test system: cGMP in the hippocampus; test: Effect on rodent hippocampal cGMP; format: in vivo, rat; conditions: po, read-out: % hippocampal cGMP increase from vehicle control
Experimental: 4) Effect on Rodent Hippocampal cGMP
The test compound was administered to Sprague-Dawley male rats (Charles River Laboratories Japan, Inc.) or Long-Evans male rats (Institute for Animal Reproduction) and then the animals were sacrificed with microwave under pentobarbital anesthesia, and the hippocampus was extracted. After measuring the wet weight, the hippocampus was frozen with liquid nitrogen and stored at −80° C. In the measurement of cGMP in the hippocampus, a 0.5 M perchloric acid/1 mM EDTA solution was added at 5% (w/v) based on the wet weight, and the mixture was homogenized. After the homogenization, the homogenate was centrifuged (10000 rpm, 15 min), and the supernatant was collected. The collected supernatant was neutralized with a 2 M potassium bicarbonate solution and centrifuged (13000 rpm, 10 min). The cGMP concentration in the supernatant was measured in accordance with the non-acetylation EIA procedure of cGMP EIA kit (GE Healthcare). The result was an increase (C) in the amount of cGMP of the test compound-administered group (B) relative to the amount of cGMP of the vehicle-administered group (A), and was calculated using the following formula. cGMP increase(C)=[(B)−(A)]/(A)×100(%)

[4] = test system: cGMP in the cerebrospinal fluid; test: Effect on rodent cerebrospinal fluid cGMP (mouse); format: in vivo, ICR male mice; conditions: 10 mg/kg p.o., sampling time 0.5 hr
Experimental: as §1, §2

[5] = rat(LE), 30 mg/kg p.o., sampling time 1 hr

T1 sequence (O76083 whole entry): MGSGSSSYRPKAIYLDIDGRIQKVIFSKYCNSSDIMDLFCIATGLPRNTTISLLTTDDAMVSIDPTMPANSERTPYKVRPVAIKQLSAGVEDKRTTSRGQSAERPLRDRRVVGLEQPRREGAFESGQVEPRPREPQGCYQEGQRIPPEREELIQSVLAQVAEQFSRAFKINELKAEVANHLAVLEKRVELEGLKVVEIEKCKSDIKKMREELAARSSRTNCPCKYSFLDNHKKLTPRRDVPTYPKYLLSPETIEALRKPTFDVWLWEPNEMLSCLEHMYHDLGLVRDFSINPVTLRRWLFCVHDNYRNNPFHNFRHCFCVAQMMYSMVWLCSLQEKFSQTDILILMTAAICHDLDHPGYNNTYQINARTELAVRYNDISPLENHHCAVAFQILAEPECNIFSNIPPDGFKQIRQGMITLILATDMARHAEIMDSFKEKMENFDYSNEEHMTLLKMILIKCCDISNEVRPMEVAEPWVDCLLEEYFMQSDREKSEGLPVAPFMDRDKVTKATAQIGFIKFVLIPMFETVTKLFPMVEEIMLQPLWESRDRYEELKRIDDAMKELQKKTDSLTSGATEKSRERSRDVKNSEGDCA

Row | SMILES | IC50 [1] | change in vivo at 10 mg/kg ([2]; Rattus norvegicus, 1 h) | change in vivo at 10 mg/kg ([3]; Rattus norvegicus, 1 h) | other results
1 | COc1ncc(C)c(-c2ccc3c(c2)[nH]c(=O)c2cnn(C4CCOCC4)c23)c1C [Example 15, 7-(2-methoxy-3,5-dimethylpyridin-4-yl)-1-(tetrahydro-2H-pyran-4-yl)-1H-pyrazolo[4,3-c]quinolin-4(5H)-one] | 8.87 nM |  |  | change in vivo at 30 mg/kg [2, 5]: 203%; change in vivo at 30 mg/kg [3, 5]: 33%
2 | COc1ncc(C)c(-c2ccc3c(c2)[nH]c(=O)c2cnn(C4COCCOC4)c23)c1C [Example 43, 1-(1,4-dioxepan-6-yl)-7-(2-methoxy-3,5-dimethylpyridin-4-yl)-1H-pyrazolo[4,3-c]quinolin-4(5H)-one] | 10.5 nM | 292% | 33% | 
3 | COc1nc(C)cc(C)c1-c1cc2[nH]c(=O)c3cnn([C@H]4CCOC4)c3c2cc1F [Example 54, (S)-8-fluoro-7-(2-methoxy-4,6-dimethylpyridin-3-yl)-1-(tetrahydrofuran-3-yl)-1H-pyrazolo[4,3-c]quinolin-4(5H)-one] | 8.71 nM | 282% | 23% | 
4 | COc1nc(C)cc(C)c1-c1ccc2c(c1)[nH]c(=O)c1cnn(C3CCOCC3)c12 [Example 4, 7-(2-methoxy-4,6-dimethylpyridin-3-yl)-1-(tetrahydro-2H-pyran-4-yl)-1H-pyrazolo[4,3-c]quinolin-4(5H)-one] | 4.37 nM |  |  | change in vivo at 30 mg/kg ([2]; Rattus norvegicus, 1 h): 246%; change in vivo at 30 mg/kg ([3]; Rattus norvegicus, 1 h): 25%
5 | COc1cc(C)c(-c2ccc3c(c2)[nH]c(=O)c2cnn(C4CCOC4)c23)c(C)n1 (single isomer, unassigned; (-)) [29 (−), (−)-7-(6-methoxy-2,4-dimethylpyridin-3-yl)-1-(tetrahydrofuran-3-yl)-1H-pyrazolo[4,3-c]quinolin-4(5H)-one] | 30.7 nM |  |  | change in vivo at 30 mg/kg ([2]; Rattus norvegicus, 1 h): 238%; change in vivo at 30 mg/kg ([3]; Rattus norvegicus, 1 h): 34%
6 | Cc1cc(OC(C)C)nc(C)c1-c1ccc2c(c1)[nH]c(=O)c1cnn([C@H]3CCOC3)c12 [Example 51, (S)-7-(6-isopropyloxy-2,4-dimethylpyridin-3-yl)-1-(tetrahydrofuran-3-yl)-1H-pyrazolo[4,3-c]quinolin-4(5H)-one] | 4.87 nM | 189% | 17% | 
7 | COc1cc(C)c(-c2ccc3c(c2)[nH]c(=O)c2cnn(C4CCOCC4)c23)c(C)n1 [Example 3, 7-(6-methoxy-2,4-dimethylpyridin-3-yl)-1-(tetrahydro-2H-pyran-4-yl)-1H-pyrazolo[4,3-c]quinolin-4(5H)-one] | 14 nM |  |  | change in vivo at 10 mg/kg ([2]; Rattus norvegicus, 2 h): 186%; change in vivo at 10 mg/kg ([3]; Rattus norvegicus, 4 h): 32%
8 | Cc1cc(C)c(-c2ccc3c(c2)[nH]c(=O)c2cnn(C4CCOCC4)c23)c(C)n1 [Example 2, 7-(2,4,6-trimethylpyridin-3-yl)-1-(tetrahydro-2H-pyran-4-yl)-1H-pyrazolo[4,3-c]quinolin-4(5H)-one] | 25 nM |  |  | % CSF cGMP increase from vehicle control [4]: 110%
9 | COc1cc(C)c(-c2cc3[nH]c(=O)c4cnn([C@H]5CCOC5)c4c3cc2F)c(C)n1 [Example 55, (S)-8-fluoro-7-(6-methoxy-2,4-dimethylpyridin-3-yl)-1-(tetrahydrofuran-3-yl)-1H-pyrazolo[4,3-c]quinolin-4(5H)-one] | 17.5 nM | 323% | 17% | 
